Data: the NIST ThermoML archive (doi:10.1021/je060333x)
± gives the expanded uncertainty stated by the source.

Assay: molar enthalpy of transition or fusion
Conditions: 352 K; Crystal; DSC

molar enthalpy of transition or fusion: 12.2 ± 0.454 kcal/mol
SMILES: OCCCCCCCCCCCCO [1,12-dihydroxydodecane]
